Assay results from patent US5798392A, “Sulfonyl fluorides for the treatment of Alzheimer's disease” (The Board of Regents of the University of Texas System, priority 1996, dated 1998).
Entries after “also recorded” stand apart in the source; their conditions may differ.

Experiments:
[1] = target: T1, erythrocyte acetylcholinesterase (Homo sapiens, UniProt P22303); test: Erythrocyte acetylcholinesterase substrate kinetics; assay type: biochemical
[2] = target: T1, erythrocyte acetylcholinesterase; test: Erythrocyte acetylcholinesterase inhibition in blood after oral dosing of humans (Ellman assay); assay type: in vivo
[3] = target: plasma butyrylcholinesterase (Homo sapiens, UniProt P06276); test: Plasma butyrylcholinesterase inhibition in blood after oral dosing (Experiment I); assay type: in vivo; settings: oral doses
Sequence of plasma butyrylcholinesterase (P06276 29-602): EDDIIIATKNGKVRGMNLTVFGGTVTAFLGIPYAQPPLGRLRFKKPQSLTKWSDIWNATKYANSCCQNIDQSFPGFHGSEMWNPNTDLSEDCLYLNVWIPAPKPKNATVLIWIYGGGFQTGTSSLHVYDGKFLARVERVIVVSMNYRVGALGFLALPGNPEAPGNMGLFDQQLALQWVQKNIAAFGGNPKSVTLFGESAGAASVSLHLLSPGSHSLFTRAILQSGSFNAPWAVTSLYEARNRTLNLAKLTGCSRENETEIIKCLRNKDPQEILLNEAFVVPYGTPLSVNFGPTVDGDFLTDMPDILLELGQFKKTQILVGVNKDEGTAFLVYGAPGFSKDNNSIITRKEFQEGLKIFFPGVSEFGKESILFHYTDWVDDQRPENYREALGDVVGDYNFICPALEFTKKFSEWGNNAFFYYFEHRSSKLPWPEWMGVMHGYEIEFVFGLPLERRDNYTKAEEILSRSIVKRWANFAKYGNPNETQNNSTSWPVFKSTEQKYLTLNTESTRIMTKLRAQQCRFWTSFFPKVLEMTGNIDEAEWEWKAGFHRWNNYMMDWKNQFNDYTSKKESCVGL

[4] = tested on: patients suffering from SDAT; test: ADAS-COG cognitive performance, Experiment III double blind crossover; assay type: in vivo, human
[5] = tested on: patients suffering from SDAT; test: Mini Mental State Exam, Experiment III double blind crossover; assay type: in vivo, human; settings: p<0.01 one-tailed, paired t-test and Wilcoxon
[6] = tested on: patients suffering from SDAT; test: Clinical Interview Based Impression of Change (CIBIC), Experiment III; assay type: in vivo, human; settings: end of 16 week protocol; baseline 4.0; p<0.01 t-test one-tailed; spread SD
[7] = tested on: patients suffering from SDAT; test: Global Deterioration Scale, Experiment III; assay type: in vivo, human
[8] = tested on: brain acetylcholinesterase; test: Brain acetylcholinesterase inhibition in rodents and monkeys; design: species or system rodent and monkey; settings: monkey, in vivo
rats and monkeys = test: Pharmacological activity after intramuscular injection in oil vehicle; assay type: in vivo; settings: i.m., sterile oil vehicle
acetylcholinesterase [9] = test: Reaction with acetylcholinesterase in brain membranes in vitro; assay type: biochemical; settings: solubilized in brain membranes, after removal from aqueous environment
acetylcholinesterase [10] = settings: cited from earlier work
animal memory = settings: minimum of 50% inhibition; without toxicity; cited from earlier work
[11] = tested on: brain acetylcholinesterase; settings: rodent and monkey brain; accumulated, small doses over a long period of time; up to; cited from earlier work
[12] = Chemical stability and solubility
[13] = Concentration in peripheral blood; settings: in vivo
[14] = Experiment III, safety in patients suffering from SDAT
[15] = Experiment II, Phase I tolerability in 10 normal subjects
[16] = Experiment I, side effects and clinical blood analyses in one normal volunteer; settings: 0.016-0.22 mg/kg oral
SDAT patients = settings: cited from earlier work
[17] = Prior tacrine treatment of two patients
[18] = acetyl-β-methylthiocholine substrate, pH 7.4, 25° C

T1 sequence (P22303 32-574): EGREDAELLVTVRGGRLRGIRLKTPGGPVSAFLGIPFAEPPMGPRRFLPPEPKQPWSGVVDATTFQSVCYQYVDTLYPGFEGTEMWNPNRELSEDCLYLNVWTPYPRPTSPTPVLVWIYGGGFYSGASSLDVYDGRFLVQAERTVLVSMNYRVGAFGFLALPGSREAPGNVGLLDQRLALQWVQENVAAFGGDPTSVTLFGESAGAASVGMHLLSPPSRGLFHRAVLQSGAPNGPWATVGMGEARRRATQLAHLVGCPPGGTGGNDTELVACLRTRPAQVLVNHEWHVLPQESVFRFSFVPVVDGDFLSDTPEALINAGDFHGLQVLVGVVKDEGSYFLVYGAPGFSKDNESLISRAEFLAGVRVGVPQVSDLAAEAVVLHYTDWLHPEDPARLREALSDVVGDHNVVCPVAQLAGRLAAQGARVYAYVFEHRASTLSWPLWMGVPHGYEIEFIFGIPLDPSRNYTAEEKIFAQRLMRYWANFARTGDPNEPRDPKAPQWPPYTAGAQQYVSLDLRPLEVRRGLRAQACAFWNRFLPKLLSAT

CC(=O)SC(C)C[N+](C)(C)C (stereo not drawn) [acetyl-β-methylthiocholine]
percent of Vmax produced by substrate concentration ([1]; 1.0 mM substrate, approximately 10 times Km, without substrate inhibition): about 91% | Acetylcholinesterase Vmax [1, 18]: 9.2552 (SEM=0.6386) ×10-6 moles/gram of erythrocytes/min | erythrocyte acetylcholinesterase Vmax [1, 18]: 9.2552 (SEM=0.6386) ×10^-6 moles/gm/min

CS(=O)(=O)F [methanesulfonyl fluoride]
inhibition at 0.14 mg/kg ([2]; 0.14 mg/kg oral three times per week, Experiment III, spread SEM in %): 85.3% | inhibition at 0.18 mg/kg ([2]; 0.18 mg/kg oral three times per week, Experiment III, spread SEM in %): 89.5% | estimated minimum therapeutic dose ([2]; 18% inhibition of remaining active enzyme per dose, Experiment I): 0.11 mg/kg | refined estimation of the (minimum) therapeutic dose ([2]; 18% inhibition of remaining enzyme, three times per week, Experiments I and II): 0.14 mg/kg | dose-response correlation r ([2]; Experiment II, FIG. 6, least squares linear regression): +0.8956 | dose/response relationship ([2]; Experiment II, FIG. 6, oral): orderly and consistent dose/response relationship | dose required to produce 18% inhibition of acetylcholinesterase remaining active ([2]; Experiment II, oral): 0.143 mg/kg | selectivity for erythrocyte acetylcholinesterase ([2]; FIG. 4, Experiment I oral doses, versus plasma butyrylcholinesterase): strongly selective for erythrocyte acetylcholinesterase | recovery kinetics of erythrocyte acetylcholinesterase ([2]; FIG. 5, 80 days after treatment ceased): follows pseudo-first order kinetics; also recorded: strictly linear plot of LOG10 [%INH] against time | half-life for recovery of erythrocyte acetylcholinesterase ([2]; FIG. 5, Experiment I, 80 days after last dose): 43 days | activity by oral administration (erythrocyte acetylcholinesterase inhibition) ([2]; oral, Experiment I, FIG. 1): active by oral administration | dose-response of erythrocyte acetylcholinesterase inhibition ([2]; oral, Experiment I, FIG. 1, one observation at each dose): orderly dose-response curve | inhibition of erythrocyte acetylcholinesterase ([2]; patients treated up to 8 weeks): 85-90% | correlation coefficient r, LOG10 [% inhibition] against time ([2]; recovery of erythrocyte acetylcholinesterase, FIG. 5, least squares linear regression): -0.9254 | inhibition of plasma butyrylcholinesterase [3]: virtually no inhibition of plasma butyrylcholinesterase | percent improvement on the ADAS-COG ([4]; 6 point reduction from 30 errors): 20% | mean improvement on the ADAS-COG ([4]; Experiment III, mean of 30 errors at beginning): 6 points | cognitive performance (reduction in errors on the ADAS-COG) ([4]; FIG. 7, during methanesulfonyl fluoride treatment): substantial improvement of cognitive performance | duration of improvement after treatment ([4]; after/through 8 weeks of placebo treatment): still clearly present after 8 weeks of placebo treatment; also recorded: maintained through 8 weeks of placebo | efficacy compared with tacrine in enhancing cognitive functions in SDAT ([4]; in vivo): significantly greater efficacy than tacrine | improvement on ADAS-COG maintained throughout 8 additional weeks of placebo ([4]; methanesulfonyl fluoride first, then placebo): about 6 points | ADAS-COG change in 8 weeks compared to placebo ([4]; p<0.01 one-tailed, paired t-test and Wilcoxon): significant improvement compared to the placebo | correlation of ADAS-COG improvement with baseline ADAS-COG errors ([4]; p<0.05, N=15): +0.6 | Mini-Mental State score change in 8 weeks compared to placebo [5]: significant improvement compared to the placebo | mean CIBIC [6]: 2.98 (SD=1.13) | mean improvement in Global Deterioration Score ([7]; 16 weeks versus baseline, p<0.01 t-test one-tailed, spread SEM): 1.3 (SEM=0.33) | mean Global Deterioration Score at the end of the protocol ([7]; end of 16 week protocol, baseline 4.4 (SEM=0.21)): 3.1 | inhibition in brain versus peripheral tissues [8]: much more inhibition in brain than peripheral tissues | pharmacological activity if injected intramuscularly (rats and monkeys): pharmacologically active | continued reaction against acetylcholinesterase (acetylcholinesterase [9]): continues to react against acetylcholinesterase even after it is removed from the aqueous environment of the membranes in vitro | mechanism and duration of acetylcholinesterase inhibition (acetylcholinesterase [10]): long-acting irreversible inhibitor of acetylcholinesterase | selectivity for acetylcholinesterase in comparison to butyrylcholinesterase (acetylcholinesterase [10]): high selectivity | enhancement of animal memory (animal memory): strong methanesulfonyl fluoride-induced enhancement of animal memory without toxicity | inhibition of brain acetylcholinesterase [11]: 80-90% | solubility in lipids ([12]; lipids): highly soluble in lipids | chemical stability in water solutions ([12]; water solutions): would degrade in water solutions | concentration in the peripheral blood [13]: drops within hours | adverse events ([14]; 0.14 mg/kg, first 7 patients): no adverse events | clinical blood profiles, especially transaminases ([14]; Experiment III): no changes in clinical blood profiles | nausea, vomiting, diarrhea, or other cholinergic side effects ([14]; Experiment III): no patients suffered | signs of toxicity at the doses used ([14]; Experiment III): no signs of methanesulfonyl fluoride toxicity | adverse events related to drug treatment ([14]; Experiment III, 0.14-0.18 mg/kg): no adverse events | patients leaving the protocol because of a drug-related adverse event ([14]; Experiment III, 21 enrolled, 15 completed): No patients | peripheral cholinergic or other toxic effects ([14]; doses sufficient for treatment of dementia): not accompanied by peripheral cholinergic or other toxic effects | hematocrit changes ([14]; patients, up to 8 weeks, 85-90% inhibition of erythrocyte acetylcholinesterase): no changes in hematocrit | adverse events in patients with known tacrine sensitivity ([14]; two patients with prior tacrine adverse effects): Neither of these patients with known sensitivities experienced adverse events | tolerability ([15]; 0.03-0.18 mg/kg oral, Experiment II): All doses used were tolerated well | safety at range of doses expected to produce a therapeutic effect ([15]; Experiments I and II): safe at the range of doses expected to produce a therapeutic effect | oral absorption ([15]; oral, Experiment II): consistently absorbed after oral administration | changes in the clinical blood analyses [16]: no changes of any type in the clinical blood analyses | cholinergic effects (e.g., diarrhea, vomiting, nausea) [16]: no cholinergic effects

COP(=O)(OC)C(O)C(Cl)(Cl)Cl (centres unmarked) [metrifonate, reference compound]
selectivity for acetylcholinesterase in comparison to butyrylcholinesterase (acetylcholinesterase [10]): do not show this high degree of selectivity

CNC(=O)Oc1ccc2c(c1)[C@]1(C)CCN(C)[C@@H]1N2C [physostigmine, reference compound]
selectivity for acetylcholinesterase in comparison to butyrylcholinesterase (acetylcholinesterase [10]): do not show this high degree of selectivity

Nc1c2c(nc3ccccc13)CCCC2 [tacrine]
mean improvement on the ADAS-COG (SDAT patients; high dose tacrine, patients who could tolerate): 2 points | patients who could tolerate (SDAT patients; high dose tacrine): 40% | patients who failed to complete the protocol because of drug-related adverse events (SDAT patients; high dose tacrine): about 60% | adverse events related to treatment (SDAT patients; in vivo): cholinergic side effects (nausea, vomiting, diarrhea, etc.) and liver toxicity | prior adverse effects ([17]; one patient each): liver toxicity; also recorded: vomiting | highest tolerated dose (limited by vomiting) ([17]; one patient, an ineffective dose): 60 mg/day
